According to US7122184B2, “Specific monoclonal antibody against terbinafine” (Novartis AG, priority 2000, dated 2006):

Key:
[1] = test system: purified antibodies from hybridoma cell line LAM-JA; experiment: Competitive ELISA for terbinafine derivatives (crossreactivity); assay type: binding, mice; conditions: for Inhibition (%) at terbinafine concentration (μg/ml) 0.0001: competitor 0.0001 μg/ml; for Inhibition (%) at terbinafine concentration (μg/ml) 0.0001 / Inhibition (%) at terbinafine concentration (μg/ml) 0.001 / Inhibition (%) at terbinafine concentration (μg/ml) 0.01 / Inhibition (%) at terbinafine concentration (μg/ml) 0.1 / Inhibition (%) at terbinafine concentration (μg/ml) 1 / Inhibition (%) at terbinafine concentration (μg/ml) 10: mAb LAM-JA binding to terbinafine-BSA conjugate; for Inhibition (%) at terbinafine concentration (μg/ml) 0.001: competitor 0.001 μg/ml; for Inhibition (%) at terbinafine concentration (μg/ml) 0.01: competitor 0.01 μg/ml; for Inhibition (%) at terbinafine concentration (μg/ml) 0.1: competitor 0.1 μg/ml; for Inhibition (%) at terbinafine concentration (μg/ml) 1: competitor 1 μg/ml; for Inhibition (%) at terbinafine concentration (μg/ml) 10: competitor 10 μg/ml; for % crossreactivity: relative to terbinafine at B/B0=50%, calculated from FIG. 1, mAb LAM-JA
Source text: The antibodies of the invention are screened and characterized in conventional manner, e.g. according to their ability to distinguish between terbinafine and its metabolites and derivatives, e.g. by determination of relative cross-reactivity. […] (1994), Stockton Press, p. 89). Relative crossreactivity is the concentration of analyte giving 50% at the point where the reduction in signal corresponds to 50% of the signal achieved in the absence of analyte (ratio B/B0 of 50%), as a percentage of the analyte concentration giving the same fall in signal.
Microtiter plates are coated with 5 μg/ml terbinafine hydrochloride—protein (BSA) conjugate in carbonate buffer overnight at 4°, then saturated with blocking reagent [SuperBloc® buffer (Pierce)] and washed 3× with 0.05% (v/v) PBS-TWEEN® (polyoxyethylene 20 sorbitan monoleate). The hybridoma supernatants to be screened are diluted in a 1% (w/v) solution of BSA in PBS-TWEEN® (polyoxyethylene 20 sorbitan monoleate), and incubated for 2 hours at 37°. Level of bound antibody is measured by anti-mouse IgG rabbit immunoglobulin coupled to horseradish peroxidase with OPD as the substrate. After incubation for one hour at room temperature the enzymatic substrate is hydrolyzed and absorbance at 490/650 nm is measured after 15 minutes incubation in the dark.
The direct ELISA according to Example 3 above is converted to a competitive ELISA wherein a competitor is added to the monoclonal antibody solution, and binding of the mAB to the conjugate in the presence and absence of the competitor is measured. Standard curves to determine cross-reactivity of a selected antibody to terbinafine and its derivatives are prepared using solutions containing known concentrations of terbinafine and appropriate derivatives (e.g. 10 μ/ml to 0.0001 μg/ml in buffer).
The result of such competitive assay for the purified antibodies from hybridoma cell line LAM-JA (where the immunogen used was carboxy-terbinafine coupled to OVA), is as follows:
The measurement of antibody response to substances other than the analyte is the crossreactivity. It may be “expressed as the point where the reduction in signal corresponds to 50% of the signal achieved in the absence of analyte (B/B0=50%), as a percentage of the analyte concentration giving the same fall in signal” [The Immunoassay Handbook, David Wild, Stockton Press, USA, 1994].
% crossreactivity is calculated as follows from FIG. 1: […]

[2] = HPLC and UV detection of terbinafine metabolites in the nail matrix; conditions: HPLC with UV detection
Source text: Thus, in relation to the cross-reactivities of the antibodies of the invention with the above metabolites (see Example 4), no detection interferences are likely to be encountered with terbinafine in nails.

SMILES	Inhibition (%) at terbinafine concentration (μg/ml) 0.0001 [1] [%]	Inhibition (%) at terbinafine concentration (μg/ml) 0.001 [1] [%]	Inhibition (%) at terbinafine concentration (μg/ml) 0.01 [1] [%]	Inhibition (%) at terbinafine concentration (μg/ml) 0.1 [1] [%]	Inhibition (%) at terbinafine concentration (μg/ml) 1 [1] [%]	Inhibition (%) at terbinafine concentration (μg/ml) 10 [1] [%]	% crossreactivity [1]	presence in the nail matrix [2]
CN(C/C=C/C#CC(C)(C)C)Cc1cccc2ccccc12 [Terbinafine ch, (E)-N-(6,6-dimethylhept-2-en-4-ynyl)-N-methyl-1-naphthalene methanamine]	0.99	−1.92	2.70	31.5	73.8	92.6		
CC(C)(C)C#C/C=C/CNCc1cccc2ccccc12 [Desmethyl-terbinafine ch, (E)-N-(6,6-dimethylhept-2-en-4-ynyl)-1-naphthalenemethanamine]	−0.45	−0.14	1.55	1.22	5.96	7.87	not detectable	measurable
CC(C)(C#C/C=C/CNCc1cccc2ccccc12)C(=O)O [Desmethyl-carboxy-terbinafine, (E)-2,2-dimethyl-7-[(naphthalen-1-ylmethyl)amino]hept-5-en-3-ynoic acid]	2.81	1.38	3.74	4.40	3.85	12.1	not detectable	
CC(C)(C#C/C=C/CNCc1cccc2ccccc12)CO [Desmethyl-hydroxy-terbinafine, (E)-2,2-dimethyl-7-[(naphthalen-1-ylmethyl)amino]hept-5-en-3-yn-1-ol]	3.60	0.79	1.60	5.30	15.7	58.0	4.5%	no hint for the presence
CN(C/C=C/C#CC(C)(C)CO)Cc1cccc2ccccc12 [Hydroxy-terbinafine, (E)-2,2-dimethyl-7-[methyl(naphthalen-1-ylmethyl)amino]hept-5-en-3-yn-1-ol]	0.40	0.56	3.74	72.5	92.9	93.0		no hint for the presence
CN(C/C=C/C#CC(C)(C)C(=O)O)Cc1cccc2ccccc12 [Carboxy-terbinafine, (E)-2,2-dimethyl-7-[methyl(naphthalen-1-ylmethyl)amino]hept-5-en-3-ynoic acid]	0.85	2.11	4.30	25.8	63.8	89.2		no hint for the presence
